Data from patent publication US20250270170A1, “2,3-DIMETHOXY-5-METHYL-1,4-BENZOQUINONE ALKYL ALCOHOL DERIVATIVE AND USE THEREOF” (BEIJING ANJIANXI BIO-MEDICAL TECHNOLOGY CO., LTD., priority 2021, published 2025).

Key:
[1] = Example 8: body weight of ECA109 tumor-bearing mice; type: in vivo, nude mice; conditions: DDP 5 mg/kg i.p. QW×4
Excerpt: The assay animals, calculation of tumor volume (TV), end of assay, data recording, calculation formula of tumor growth inhibition rate TGI (%), and statistical analysis method were the same as those in Example 3; the preparation of the administration formulation of the compound of formula (I) was the same as that in Example 5. […] The cells were pipetted with a pipette to disperse them evenly, and the cells were put into a 50-mL centrifuge tube, which was placed in an ice box. A 1-mL syringe was used to draw the cell suspension, which was injected subcutaneously into the axilla of the front right limb of a […]. Each animal was inoculated with 200 μL (1.0×10^7 cells/mouse) to establish an ECA109 transplanted tumor model in nude mice. After the inoculation, the animal status and tumor growth were regularly observed, and the tumor diameter was measured using an electronic vernier caliper. The data were input into an Excel spreadsheet to calculate the tumor volume. When the tumor volume reached 100 to 300 mm^3, animals in good health and with similar tumor volumes were selected and divided into groups using randomized block method. The day of grouping was regarded as the first day of the assay (D1). After the start of the assay, the tumor diameter was measured twice a week, the tumor volume was calculated, and the animal body weight was also weighed and recorded. [table]

[2] = Example 8: serum UREA at the end of the assay; type: in vivo, nude mice; conditions: DDP 5 mg/kg i.p. QW×4
Excerpt: The assay animals, calculation of tumor volume (TV), end of assay, data recording, calculation formula of tumor growth inhibition rate TGI (%), and statistical analysis method were the same as those in Example 3; the preparation of the administration formulation of the compound of formula (I) was the same as that in Example 5. [table]

[3] = Solubility of the compound in organic solvents; type: physicochemical; conditions: organic solvents (DMSO and isopropyl alcohol 3:7 selected)
Method: The containers with DMSO and isopropyl alcohol were opened in a biological safety cabinet. A 15 ml centrifuge tube was taken, and 3 ml of DMSO and 7 ml of isopropyl alcohol were added to make a mixed solvent. The molecular weight of the compound of formula (I) is 678.22 g/mol. 40.69 mg of an original drug of the compound of formula (I) was weighed, and 4 ml of the mixed solvent was added. The mixture was mixed well by pipetting. […] The solution was diluted according to the required concentration when being used.

[4] = system: NCI-H460 cells; assay: Colony formation assay, NCI-H460; type: cell-based, human; conditions: 50 μM and 150 μM vs 0 μM, about 2 weeks
Method: (1) The cell status was observed under a microscope. Cells in the logarithmic growth phase were selected and digested to make a cell suspension. 20 μl of the cell suspension was taken with a pipette and added to the CountStar disposable cell counting plate for cell counting, and the counting results were recorded.
(2) A 6-well culture plate was used for colony formation assay. Approximately 1,000 cells were inoculated into each well, and the complete culture medium was added to make up the volume to 2.5 ml per well. The cells were shaked in a figure-8 pattern to disperse the cells evenly. The next day, the compound of formula (I) at different concentrations (0 μM, 50 μM, and 150 μM) were added to the corresponding wells according to the assay plan, and incubated in an incubator at 37° C. with 5% CO2 for about 2 weeks. The culture was terminated when visible colonies appeared.
(3) The culture plate was taken out, and the old culture medium was discarded. The cells were gently washed twice with PBS.
(4) 500 μl of 4% paraformaldehyde fixative was added to each well to fix the cells at room temperature for 15 minutes, and then the fixative was discarded.
(5) 500 μl of 0.1% crystal violet solution was added to each well, and cells were stained at room temperature for at least 15 minutes. The crystal violet was discarded, and the staining solution was slowly washed away with running water. […]

N.N.[Cl][Pt][Cl] [DDP, cisplatin]
Mean animal body weight ([1]; D1): 20.8 ± 0.4 g | Mean animal body weight ([1]; D5): 20.3 ± 0.6 g | body weight loss rate ([1]; D5): (2.1%) | Mean animal body weight ([1]; D8): 20.5 ± 0.4 g | body weight loss rate ([1]; D8): (1.4%) | Mean animal body weight ([1]; D12): 19.4 ± 0.4 g | body weight loss rate ([1]; D12): (6.7%) | Mean animal body weight ([1]; D15): 19.9 ± 0.3 g | body weight loss rate ([1]; D15): (4.3%) | Mean animal body weight ([1]; D19): 19.0 ± 0.3 g | body weight loss rate ([1]; D19): (8.5%) | Mean animal body weight ([1]; D22): 19.5 ± 0.4 g | body weight loss rate ([1]; D22): (5.9%) | Mean animal body weight ([1]; D26): 17.7 ± 0.3 g | body weight loss rate ([1]; D26): (15%) | Mean animal body weight ([1]; D29): 17.9 ± 0.3 g | body weight loss rate ([1]; D29): (14%) | Mean animal body weight ([1]; D33): 18.7 ± 0.4 g | body weight loss rate ([1]; D33): (10%) | Mean animal body weight ([1]; D36): 18.7 ± 0.3 g | body weight loss rate ([1]; D36): (10%) | Serum UREA Mean ± SE [2]: 13.43 ± 1.04 mmol/L

COC1=C(OC)C(=O)C(CCCCCCCCCCOC(=O)Cc2c(C)n(C(=O)c3ccc(Cl)cc3)c3ccc(OC)cc23)=C(C)C1=O [compound of formula (I)]
solubility in organic solvents [3]: easily soluble | colony-forming ability [4]: decreased significantly
